Results published in patent US10766899B2, “Methods for preparing substituted imidazo[4,5-b]pyrazines” (Cytokinetics, Inc., priority 2006, dated 2020).

Columns and labels:
[1] = tested on: SKM MF; assay: SKM MF AC1.4: ATPase of skeletal sarcomeric proteins (actin, tropomyosin, troponin complex, myosin), PK/LDH coupled enzyme system; assay type: biochemical; conditions: screen at pCa=6.5; † mean value, ‡ median value
Protocol: For example, test compounds can be assayed in a highly parallel fashion by using multiwell plates by placing the compounds either individually in wells or testing them in mixtures. Assay components including the target protein complex, coupling enzymes and substrates, and ATP can then be added to the wells and the absorbance or fluorescence of each well of the plate can be measured with a plate reader.
In some embodiments, the method uses a 384 well plate format and a 25 μL reaction volume. A pyruvate kinase/lactate dehydrogenase coupled enzyme system (Huang T G and Hackney D D. (1994) J Biol Chem 269(23):16493-501) can be used to measure the rate of ATP hydrolysis in each well. As will be appreciated by those in the art, the assay components are added in buffers and reagents. The incubation periods can be optimized to give adequate detection signals over the background. The assay can be done in real time giving the kinetics of ATP hydrolysis which increases the signal to noise ratio of the assay.
Actin was purified by first preparing an ether powder of cardiac muscle (Zot H G and Potter J D. (1981) Preparative Biochemistry 11:381-395) as described below. Subsequently, actin was cycled between the filamentous and soluble state through rounds of centrifugation and dialysis (Spudich J A and Watt S. (1971) J. Biol. Chem. 246:4866-4871). It was stored in the filamentous state at 4° C.
Tropomyosin was extracted from the ether powder and separated from the other proteins based on pH dependent precipitations followed by successive ammonium sulfate cuts at 53% and 65% (Smillie L B. (1981) Methods Enzymol 85 Pt B:234-41). The troponins were isolated as an intact complex of TnC, TnT, and TnI. Ether powder is extracted in a high salt buffer. Successive ammonium sulfate cuts of 30% and 45% were done; the precipitate was solubilized by dialysis into a low salt buffer and then further purified on a DEAE Toyopearl column with a 25-350 mM KCl gradient.
Just prior to screening, the actin, tropomyosin, and troponin complex are mixed together in the desired ratio (e.g., 7:1:1) to achieve maximal calcium regulation of the actin filament. The screen is conducted at a pCa=6.5. This calcium concentration is in the physiological range during muscle contraction.
To measure the generation of ADP during the reaction, a pyruvate kinase/lactate dehydrogenase/NADH coupled enzyme system (PK/LDH) is added to the actin. The myosin is kept separately. The plates are read in real time so that kinetic curves are obtained. These compounds are in DMSO and were already spotted onto the bottoms of 384 well plates at 10 to 40 μg/ml final concentration.
• 1. Obtain ˜1000 g skeletal muscle, such as rabbit skeletal muscle. • 2. Grind twice; extract with 2 L solution A for 15 min while stirring; add 4 L cold H2O, filter through gauze; dilute with cold H2O to ionic strength of 0.04, (about 10-fold); let settle for 3 h; collect precipitate at 7,000 rpm in GSA rotor for 15 min. • 3. Disperse pellet in 220 ml solution B; dialyze overnight against 6 L solution C; slowly add ˜400 ml equal volume cold distilled H2O; stir for 30 min; centrifuge at 10,000 rpm for 10 min in GSA rotor. • 4. Centrifuge supernatant at 19,000 rpm for 1 h. • 5. Dilute supernatant to ionic strength of 0.04 (˜8-fold); let myosin settle overnight; collect about 5-6 L fluffy myosin precipitate by centrifuging at 10,000 rpm for 10 min in GSA rotor. • 6. Resuspend pellet in minimal volume of solution G; dialyze overnight against 2 L solution D; centrifuge at 19,000 rpm for 2 h, in cellulose nitrate tubes; puncture tubes and separate myosin from fat and insoluble pellet. • 7. Dilute supernatant to 5-10 mg/ml and dialyze against solution E extensively, load onto DEAE-sephadex column. • 8. […]

[2] = tested on: rats with induced experimental autoimmune myasthenia gravis (EAMG); assay: Validation of EAMG model (neostigmine), grip strength; assay type: in vivo, Sprague-Dawley rats; conditions: 0.2 mg/kg intraperitoneally, 5 minutes after treatment
Protocol: Female Sprague-Dawley rats (200-300 g) were purchased from Charles River Laboratories and given a minimum 72 hours acclimation period. Experimental autoimmune Myasthenia Gravis (EAMG) was induced by a single intra-peritoneal injection of 500 μg/kg of AChRα1/3/5 antibody (SC-58604, Santa Cruz Biotechnology, CA, USA). Fore- and hind-limb grip measurements were acquired in triplicate with a 5 kg Dual Sensor Grip Meter (Columbus Instruments, Ohio, USA) as described in Example 1. Baseline body weight and fore- and hind-grip strength of animals was measured before inducing EAMG.
Selected rats were divided into vehicle and compound treated groups. Neostigmine (an acetylcholinesterase inhibitor that is used clinically for the assessment and treatment of myasthenia gravis) was administered to test animals intraperitoneally at 0.2 mg/kg. After dosing, rats were reassessed for grip strength at 5, 10 and 20 minutes.

SKM MF AC1.4 [1] | SMILES | forelimb grip strength (FIG. 2) [2]
1.0 µM | C/C=C\c1cnc2nc(O)n([C@@H](C)c3ccccc3)c2n1 [(S,Z)-1-(1-phenylethyl)-6-(prop-1-enyl)-1H-imidazo[4,5-b]pyrazin-2-ol] | 
3.1 µM | CCC/C=C\Cc1cnc2nc(O)n([C@@H](C)c3ccccc3)c2n1 [(S,Z)-6-(hex-2-enyl)-1-(1-phenylethyl)-1H-imidazo[4,5-b]pyrazin-2-ol] | 
0.6 µM | C/C=C\c1cnc2nc(O)n(C(CC)CC)c2n1 [(Z)-1-(pentan-3-yl)-6-(prop-1-enyl)-1H-imidazo[4,5-b]pyrazin-2-ol] | 
6.0 µM | C/C=C\c1cnc2nc(O)n(C3CCCCC3)c2n1 [(Z)-1-cyclohexyl-6-(prop-1-enyl)-1H-imidazo[4,5-b]pyrazin-2-ol] | 
4.6 µM | C/C=C\c1cnc2nc(O)n(C(C)C)c2n1 [(Z)-1-isopropyl-6-(prop-1-enyl)-1H-imidazo[4,5-b]pyrazin-2-ol] | 
0.9^† μM | CCC(CN1CCN(C(=O)OC)CC1)n1c(O)nc2ncc(Br)nc21 (stereo not shown) [methyl 4-(2-(6-bromo-2-hydroxy-1H-imidazo[4,5-b]pyrazin-1-yl)butyl)piperazine-1-carboxylate] | 
 | CN(C)C(=O)Oc1cccc([N+](C)(C)C)c1 [neostigmine] | increased forelimb grip strength
